Assay results from PubChem BioAssay AID732 (Emory University Molecular Libraries Screening Center, 2007).
Where “and” joins values, the source holds several entries; their conditions need not be identical. Equal entries are not always repeated. Calls of active or inactive are those of the source. The rule behind the calls is not given here.

Test system: in vivo angiogenesis, blood vessel count
Assay: reduction of blood vessel formation in vivo – HTS, in vivo study (AID 732);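 note: zebrafish embryos dosed at one day post fertilization; 0% = reference inhibitor and 100% = plate mean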
Conditions: stronger effect = lower value;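 tested at 30 µM in the well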

Row | SMILES | vessel count % control
1 | Cc1cnc(C(=O)NCCc2ccc(S(=O)(=O)NC(=O)NC3CCCCC3)cc2)cn1 | 106% (inactive)
2 | CC(C)NCC(O)COc1cccc2ccccc12 (stereo unspecified) | 117% (inactive)
3 | C[C@H](Cc1ccc(O)c(O)c1)[C@@H](C)Cc1ccc(O)c(O)c1 | 124% (inactive)
4 | COc1ccc2c(c1)c(CC(=O)O)c(C)n2Cc1ccc(Cl)cc1 | 109% (inactive)
5 | CCCn1c(C)c(C(=O)c2ccc3ccccc3c2)c2ccccc21 | 110% (inactive)
6 | CN(C)C/C=C(/c1ccc(Br)cc1)c1cccnc1 | 104% (inactive)
7 | OC(CN1CCN(c2cccc(Cl)c2)CC1)C(c1ccccc1)c1ccccc1 (stereo unspecified) | 67.8% (inactive)
8 | CNc1cc(NS(=O)(=O)c2ccc(N)cc2)nc(NC)n1 | 81.3% (inactive)
9 | C#CCOC(=O)C1=CCCN(C)C1 | 106% (inactive)
10 | CC(C)(C)c1o[nH]c(=O)c1CC(N)C(=O)O (stereo unspecified) | 106% (inactive)
11 | C=C[C@H]1CN2CCC1C[C@H]2[C@H](O)c1ccnc2ccc(OC)cc12 (stereo partly specified) | 98% (inactive)
12 | Cc1ccc(OCC(O)C(C)NC(C)C)c2c1CCC2 (stereo unspecified) | 103% (inactive)
13 | Oc1[nH]c2ccccc2c1C1=Nc2ccc(Br)cc2/C1=N\OCCN1CCCC1 | 91.2% (inactive) and 74% (inactive)
14 | CN(N=O)c1cc(O)ccc1O | 88% (inactive)
15 | CC(=O)O[C@H]1C[C@@H]2CC[C@@H]3[C@H](CC[C@@]4(C)[C@H]3C[C@H]([N+]3(C)CCCCC3)[C@@H]4OC(C)=O)[C@@]2(C)C[C@@H]1[N+]1(C)CCCCC1 | 98% (inactive)
16 | NC(Cc1ccc(Cl)cc1)C(=O)O (stereo unspecified) | 103% (inactive)
